Measurements reported in patent EP4810499A1, “TREATMENT OF BEHÇET'S DISEASE” (Ganzhou Hemay Pharmaceutical, Co., Ltd, priority 2023, dated 2025).

Test system: healthy Chinese subjects
Assay: Phase I clinical trial, multiple oral administrations (Example 6)
Format: in vivo, human
Conditions: 15 mg BID, 30 mg BID, 60 mg BID and 75 mg BID, 36 healthy Chinese subjects
Description: A Phase I clinical trial enrolling a total of 36 healthy Chinese subjects was conducted, with multiple oral administrations of the compound of Example 2 at doses of 15 mg BID, 30 mg BID, 60 mg BID and 75 mg BID, and placebo, respectively.

SMILES: CCOc1cc([C@@H](CS(C)(=O)=O)N2C(=O)c3csc(NC(C)=O)c3C2=O)ccc1OC [Example 2, (S)-N-[5-[1-(3-ethoxy-4-methoxyphenyl)-2-(methylsulfonyl)ethyl]-4,6-dioxo-5,6-dihydro-4H-thieno[3,4-c]pyrrol-1-yl]acetamide]
- safety and tolerability: favorable safety and good tolerability
